# Measured values published in patent US20220296572A1, “IMMUNOSUPPRESSIVE THERAPIES FOR USE WITH CARDIOMYOCYTE CELL THERAPIES, AND ASSOCIATED METHODS AND COMPOSITIONS” (Sana Biotechnology, Inc., priority 2021, published 2022).
# What was measured:
# [1] = transplant recipients; cited from earlier work
# [2] = Tacrolimus blood trough level in the rhesus recipient; format: in vivo, rhesus macaque (Macaca mulatta); conditions: subcutaneously twice per day
# Method: Beginning five days prior to delivery of the cell therapy composition and continuing for 16 weeks after delivery, the rhesus recipient was treated daily with tacrolimus and MMF. Tacrolimus was provided subcutaneously twice per day at a dose yielding a blood trough level of approximately 5-10 ng/mL. MMF was provided orally twice per day, for a total dose of 250 mg MMF per day. If a subject cannot tolerate oral dosing of MMF, MMF can be alternatively provided by intravenous administration. In some cases, if a subject cannot tolerate oral MMF, the subject is administered intravenous MMF until the subject can tolerate oral MMF, at which point the subject is switched from intravenous to oral MMF Immune rejection of the riPSC-CMs 16 weeks after delivery was determined by histopathological analysis.
# T cells = conditions: relative to CsA; cited from earlier work
Blood trough level [2],SMILES,Safety profile relative to MMF [1],Therapeutic equivalence to MMF [1],"Concentrations giving similar effects to CsA, times lower (T cells)"
,"COc1c(C)c2c(c(O)c1C/C=C(\C)CCC(=O)[O-])C(=O)OC2.[Na+] [MS, mycophenolate sodium]",comparable safety profile,therapeutically equivalent to MMF,
5 to 10 ng/mL,"C=CC[C@@H]1/C=C(\C)C[C@H](C)C[C@H](OC)[C@H]2O[C@@](O)(C(=O)C(=O)N3CCCC[C@H]3C(=O)O[C@H](/C(C)=C/[C@@H]3CC[C@@H](O)[C@H](OC)C3)[C@H](C)[C@@H](O)CC1=O)[C@H](C)C[C@@H]2OC [Tacrolimus, tacrolimus]",,,100 times
